Measurements taken from patent publication US11458138B2 (Novartis AG, priority 2017, dated 2022).

Columns and labels:
[1] = biological target: Human LATS1 kinase domain protein (Homo sapiens (Human), UniProt O95835); test: LATS1 Biochemical Caliper Assay (Compound Examples 291-335); conditions: Caliper EZ Reader
Experimental: The LATS1 biochemical Caliper assay was performed as following.
Human LATS1 kinase domain protein was purchased from Carnabio (catalogue number 01-123; lot 15CBS-0098D). Human LATS1, catalytic domain [589-1130(end) amino acids of accession number NP_004681.1] was co-expressed as N-terminal GST-fusion protein (90 kDa) with human His-tagged MOBKL1A [1-216(end) amino acids of accession number NP_775739.1] using baculovirus expression system. GST-LATS1 was purified by using glutathione sepharose chromatography. The substrate (Fluo-SGKtide; Peptide for LATS1; lot BS-41067) has the following sequence: 5-Fluo-Nva-[…]-amide (SEQ ID NO: 27) x TFA and was purchased from Biosyntan.
The reaction is performed in reaction buffer containing 50 mM Hepes pH 7,5; 0.02% Tween20; 0.02% BSA; 1 mM DTT; 10 uM Na3VO4 and 10 mM beta-Glycerolphosphat and fresh added 1 mM MgCl2 and qsp H2O.
The substrate solution (2× conc.) in Reaction Buffer contains 300 μM ATP and 4 μM Fluo-SGKtide.
The kinase solution (2× conc.) in Reaction Buffer contains 20 nM LATS1 kinase. 4.5 μL of 2× conc. Kinase solution, 50 nL of 1.8 mM compounds and 4.5 μL of substrate solution were added into 384-well plates black small volume from Greiner and incubated at 32° C. for 1 hour. 15 μL of stop buffer containing 100 mM Hepes pH 7,5; 5% DMSO; 0.1% Coating reagent; 10 mM EDTA and 0.02% Brij35 and qsp H2O to each well to terminate the reaction.
Substrates and products were electrophoretically separated using the microfluidic-based Caliper EZ Reader System (Caliper Life Sciences) using a 12 sipper chip (cat 760404). The separation takes place in Coating Buffer (idem Stop buffer) and containing 0.1% Coating reagent CR3 and 0.5% coating reagent CR8 (Perkin Elmer).
Plates were read using a LED with an excitation at 488 nm and a detection at 520 nm to 5 quantify the fluorescence intensity.

LATS1 = LATS1 (Homo sapiens (Human), UniProt O95835); test: LATS1 biochemical assay (Table 1A, Compound Examples 1-290; method in the earlier part)
LATS1, sequence (O95835 whole entry, looked up): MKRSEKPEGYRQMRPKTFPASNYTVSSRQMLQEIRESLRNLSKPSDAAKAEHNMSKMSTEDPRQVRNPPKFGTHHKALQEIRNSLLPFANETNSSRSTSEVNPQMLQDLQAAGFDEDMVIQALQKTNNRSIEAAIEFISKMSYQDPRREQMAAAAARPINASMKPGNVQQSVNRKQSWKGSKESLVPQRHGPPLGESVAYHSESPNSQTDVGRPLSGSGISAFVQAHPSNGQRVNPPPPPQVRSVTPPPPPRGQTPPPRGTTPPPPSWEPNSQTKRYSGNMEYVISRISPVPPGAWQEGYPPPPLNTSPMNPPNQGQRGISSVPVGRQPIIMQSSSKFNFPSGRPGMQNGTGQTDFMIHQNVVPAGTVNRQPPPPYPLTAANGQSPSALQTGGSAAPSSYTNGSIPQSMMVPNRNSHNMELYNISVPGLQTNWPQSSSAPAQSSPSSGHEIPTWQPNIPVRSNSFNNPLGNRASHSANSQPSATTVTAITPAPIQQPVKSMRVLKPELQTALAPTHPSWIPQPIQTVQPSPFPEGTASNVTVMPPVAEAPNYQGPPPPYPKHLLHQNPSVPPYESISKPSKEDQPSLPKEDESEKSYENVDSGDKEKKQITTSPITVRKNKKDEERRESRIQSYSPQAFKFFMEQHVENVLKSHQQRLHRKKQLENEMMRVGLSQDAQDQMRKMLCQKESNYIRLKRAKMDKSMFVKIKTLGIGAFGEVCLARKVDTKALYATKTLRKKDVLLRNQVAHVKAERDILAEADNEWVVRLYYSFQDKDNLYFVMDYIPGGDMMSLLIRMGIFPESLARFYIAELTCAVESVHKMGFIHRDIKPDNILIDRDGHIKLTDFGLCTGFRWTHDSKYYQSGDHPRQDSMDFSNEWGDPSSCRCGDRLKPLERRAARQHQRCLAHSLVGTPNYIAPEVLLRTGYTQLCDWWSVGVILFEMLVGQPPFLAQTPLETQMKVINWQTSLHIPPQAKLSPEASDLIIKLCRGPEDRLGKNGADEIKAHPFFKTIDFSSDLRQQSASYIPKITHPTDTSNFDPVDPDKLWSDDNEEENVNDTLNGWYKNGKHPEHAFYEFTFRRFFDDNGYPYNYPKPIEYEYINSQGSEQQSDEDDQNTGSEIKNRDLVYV
LATS1, sequence (Q7L9L4 whole entry partner, looked up): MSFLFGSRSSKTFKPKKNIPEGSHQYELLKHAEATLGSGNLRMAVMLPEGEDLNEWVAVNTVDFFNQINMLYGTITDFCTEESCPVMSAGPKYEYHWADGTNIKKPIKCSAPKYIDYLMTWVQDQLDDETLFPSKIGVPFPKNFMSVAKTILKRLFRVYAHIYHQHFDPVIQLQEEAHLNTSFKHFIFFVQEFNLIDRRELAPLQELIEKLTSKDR

[2] = test system: Phospho-YAP (SER127) in HaCaT cells; test: pYAP HTRF Assay (HaCaT Cells); format: cell-based, human; conditions: Homo sapiens, 2 hours
Outline: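 HaCaT cells at 5500 cells/well were cultured 48 hours at 37° C, then treated with compound for 2 hours. Phospho-YAP (Ser127) was detected by HTRF after an overnight (20 hrs) room-temperature incubation, read as the 665 nm/620 nm ratio.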

[3] = test system: YAP nuclear translocation in HaCaT cells; test: YAP Translocation Assay (HaCaT Cells); format: cell-based, human; conditions: Homo sapiens, 24 hours
Outline: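 HaCaT cells (20,000/well) in DMEM + 10% FBS were plated overnight at 37° C, then exposed to compound for 24 h at 37° C. Cells were fixed with PFA, permeabilized with 0.1% Triton/1.5% BSA and imaged by high-content imaging.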

[4] = test system: Phospho-YAP (Ser127) in JHH-5 cells; test: pYAP HTRF Assay (JHH-5 cells); format: cell-based; conditions: 2 hours
Outline: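 JHH-5 cells (24000/well) cultured 24 h at 37 °C in William's E with 10% FBS, then exposed to compounds for 2 h at 37 °C. After lysis, pYAP d2/cryptate antibodies incubated 18 h at room temperature; HTRF ratio 665/620 nm ×10000.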

Human LATS1 kinase domain protein, sequence (O95835 whole entry, looked up, the tested form may be a part): as the sequence (O95835 whole entry, looked up) above
Human LATS1 kinase domain protein, sequence (Q7L9L4 whole entry partner, looked up, the tested form may be a part): as the sequence (Q7L9L4 whole entry partner, looked up) above

Q: How did the IC50 [1] turn out when `CN(C)CCC(C)(C)Nc1nc(-c2ccnc(F)c2)nc2cnccc12` [Example 331, N^3-(2-(2-fluoropyridin-4-yl)pyrido[3,4-d]pyrimidin-4-yl)-N^1,N^1,3-trimethylbutane-1,3-diamine] was run?
A: 10.5 nM

Q: `FC(F)(F)[C@@H]1CN(c2nc(-c3ccncc3)nc3cnccc23)CCN1` [Example 321, (S)-2-(pyridin-4-yl)-4-(3-(trifluoromethyl)piperazin-1-yl)pyrido[3,4-d]pyrimidine] was tested. Which IC50 [1] did it give?
A: 3.8 nM

Q: Which IC50 [1] does the source give for `C[C@](O)(CNc1cc(-c2ccncc2)nc2cnccc12)C(F)(F)F` [Example 327, (S)-1,1,1-trifluoro-2-methyl-3-((2-(pyridin-4-yl)-1,7-naphthyridin-4-yl)amino)propan-2-ol] here?
A: 125 nM

Q: How did the IC50 [1] turn out when `c1cc(-c2cc(N3CCNCC3)c3ccncc3n2)ccn1` [Example 292, 4-(piperazin-1-yl)-2-(pyridin-4-yl)-1,7-naphthyridine] was run?
A: 43.3 nM

Q: Which IC50 [1] does the source give for `CC1(C)CN(c2cc(-c3ccncc3)nc3cnccc23)CCN1` [Example 298, 4-(3,3-dimethylpiperazin-1-yl)-2-(pyridin-4-yl)-1,7-naphthyridine] here?
A: 59 nM

Q: `CN1CCN(c2cc(-c3ccncc3)nc3cnccc23)CC1` [Example 291, 4-(4-methylpiperazin-1-yl)-2-(pyridin-4-yl)-1,7-naphthyridine] was tested. Which IC50 [1] did it give?
A: 457 nM

Q: For `CN(C)C(C)(C)CNc1nc(-c2ccncc2)nc2cnccc12` [Example 325, N^2,N^2,2-trimethyl-N^1-(2-(pyridin-4-yl)pyrido[3,4-d]pyrimidin-4-yl)propane-1,2-diamine], which IC50 [1] is on record?
A: 3.7 nM

Q: How did the IC50 [1] turn out when `CN(C)CCC(C)(C)Nc1nc(-c2ccnc(N)c2)nc2cnccc12` [Example 334, N^3-(2-(2-aminopyridin-4-yl)pyrido[3,4-d]pyrimidin-4-yl)-N^1,N^1,3-trimethylbutane-1,3-diamine] was run?
A: 6.1 nM

Q: How did the IC50 [1] turn out when `CCOC(=O)C(C)(C)Nc1nc(-c2ccncc2)nc2cnccc12` [Example 322, ethyl 2-methyl-2-((2-(pyridin-4-yl)pyrido[3,4-d]pyrimidin-4-yl)amino)propanoate] was run?
A: 29.2 nM

Q: With `CC(C)(C)OC(=O)NCCNc1nc(-c2ccncc2)nc2cnccc12` [Example 311, tert-butyl (2-((2-(pyridin-4-yl)pyrido[3,4-d]pyrimidin-4-yl)amino)ethyl)carbamate] as the molecule, how does the IC50 [1] read?
A: 1030 nM

Q: For `CC(C)(CCNC(=O)OC(C)(C)C)Nc1nc(-c2ccncc2)nc2cnccc12` [Example 328, tert-butyl (3-methyl-3-((2-(pyridin-4-yl)pyrido[3,4-d]pyrimidin-4-yl)amino)butyl)carbamate], which IC50 [1] is on record?
A: 18.9 nM

Q: Which IC50 [1] does the source give for `Cc1n[nH]c(C)c1-c1nc(NC(C)(C)CCN(C)C)c2ccncc2n1` [Example 332, N^3-(2-(3,5-dimethyl-1H-pyrazol-4-yl)pyrido[3,4-d]pyrimidin-4-yl)-N^1,N^1,3-trimethylbutane-1,3-diamine] here?
A: 7.6 nM

Q: `CC(C)(Nc1nc(-c2ccncc2)nc2cnccc12)C(N)=O` [Example 326, 2-methyl-2-((2-(pyridin-4-yl)pyrido[3,4-d]pyrimidin-4-yl)amino)propanamide] was tested. Which IC50 [1] did it give?
A: 57.2 nM

Q: With `CN(C)C(C)(C)CNc1cc(-c2ccncc2)nc2cnccc12` [Example 302, N^2,N^2,2-trimethyl-N^1-(2-(pyridin-4-yl)-1,7-naphthyridin-4-yl)propane-1,2-diamine] as the molecule, how does the IC50 [1] read?
A: 59.5 nM

Q: With `CC(C)(CNc1nc(-c2ccncc2)nc2cnccc12)NC(=O)OC(C)(C)C` [Example 310, tert-butyl (2-methyl-1-((2-(pyridin-4-yl)pyrido[3,4-d]pyrimidin-4-yl)amino)propan-2-yl)carbamate] as the molecule, how does the IC50 [1] read?
A: 164 nM

Q: `CN(C)CC(C)(C)CN(C)c1nc(-c2ccncc2)nc2cnccc12` [Example 329, N^1,N^1,N^3,2,2-pentamethyl-N^3-(2-(pyridin-4-yl)pyrido[3,4-d]pyrimidin-4-yl)propane-1,3-diamine] was tested. Which IC50 [1] did it give?
A: 3 nM

Q: With `CN(C)CCC(C)(C)Nc1nc(-c2c[nH]nc2C(F)(F)F)nc2cnccc12` [Example 333, N^1,N,3-trimethyl-N^3-(2-(3-(trifluoromethyl)-1H-pyrazol-4-yl)pyrido[3,4-d]pyrimidin-4-yl)butane-1,3-diamine] as the molecule, how does the IC50 [1] read?
A: 2.3 nM

Q: With `CCN(CC)CCC(C)(C)Nc1nc(-c2ccncc2)nc2cnccc12` [Example 330, N,N-diethyl-3-methyl-N^3-(2-(pyridin-4-yl)pyrido[3,4-d]pyrimidin-4-yl)butane-1,3-diamine] as the molecule, how does the IC50 [1] read?
A: 3.1 nM

Q: `c1cc(-c2cc(NC3COC3)c3ccncc3n2)ccn1` [Example 296, N-(oxetan-3-yl)-2-(pyridin-4-yl)-1,7-naphthyridin-4-amine] was tested. Which IC50 [1] did it give?
A: 209 nM

Q: How did the IC50 [1] turn out when `CC1(C)CN(c2cc(-c3ccncc3)nc3cnccc23)CCO1` [Example 299, 2,2-dimethyl-4-(2-(pyridin-4-yl)-1,7-naphthyridin-4-yl)morpholine] was run?
A: 97.1 nM

Q: What does the source list for `CC(C)(C)Nc1nc(-c2ccncc2Cl)nc2cnccc12` [Example 116, N-tert-butyl-2-(3-chloropyridin-4-yl)pyrido[3,4-d]pyrimidin-4-amine]?
A: IC50 (LATS1): 3 nM; IC50 [2]: 782 nM; EC50 [3]: 2180 nM; IC50 [4]: 2200 nM

Q: How did the IC50 (LATS1) turn out when `CC(Nc1nc(-c2ccncc2)nc2cnccc12)(C(=O)O)C(F)(F)F` (centres unmarked) [Example 84, 3,3,3-trifluoro-2-methyl-2-{[2-(pyridin-4-yl)pyrido[3,4-d]pyrimidin-4-yl]amino}propanoic acid] was run?
A: 21 nM

Q: And the IC50 [2]?
A: 65200 nM

Q: And the EC50 [3]?
A: > 20000 nM

Q: What about the IC50 [4] of the same molecule?
A: > 10000 nM

Q: What does the source list for `CC1(Nc2nc(-c3ccncc3)nc3cnccc23)CC1` [Example 99, N-(1-methylcyclopropyl)-2-(pyridin-4-yl)pyrido[3,4-d]pyrimidin-4-amine]?
A: IC50 (LATS1): 1 nM; IC50 [2]: 113 nM; EC50 [3]: 606 nM; IC50 [4]: 5700 nM

Q: With `CC(C)(O)CC(C)(C)Nc1cc(-c2ccncc2)nc2cnccc12` [Example 263, 2,4-dimethyl-4-{[2-(pyridin-4-yl)-1,7-naphthyridin-4-yl]amino}pentan-2-ol] as the molecule, how does the IC50 (LATS1) read?
A: 7 nM

Q: What about the IC50 [2] of the same molecule?
A: 3220 nM

Q: And the EC50 [3]?
A: 5990 nM

Q: And the IC50 [4]?
A: > 10000 nM

Q: How did the IC50 (LATS1) turn out when `CC(C)(C)Nc1cc(-c2ccnnc2)nc2cnccc12` [Example 273, N-tert-butyl-2-(pyridazin-4-yl)-1,7-naphthyridin-4-amine] was run?
A: 463 nM

Q: And the IC50 [2]?
A: > 100000 nM

Q: And the EC50 [3]?
A: > 20000 nM

Q: And the IC50 [4]?
A: > 10000 nM

Q: Which IC50 (LATS1) does the source give for `Cn1nccc1-c1nc(NC(C)(C)C)c2ccncc2n1` [Example 184, N-tert-butyl-2-(1-methyl-1H-pyrazol-5-yl)pyrido[3,4-d]pyrimidin-4-amine] here?
A: 4 nM

Q: And the IC50 [2]?
A: 2510 nM

Q: And the EC50 [3]?
A: 2810 nM

Q: And the IC50 [4]?
A: 6500 nM

Q: How did the IC50 (LATS1) turn out when `CC(C)(CCO)Nc1nc(-c2ccncc2)nc2cnccc12` [Example 61, 3-methyl-3-{[2-(pyridin-4-yl)pyrido[3,4-d]pyrimidin-4-yl]amino}butan-1-ol] was run?
A: 1 nM

Q: What about the IC50 [2] of the same molecule?
A: 141 nM

Q: And the EC50 [3]?
A: 517 nM

Q: And the IC50 [4]?
A: 1400 nM

Q: What does the source list for `CC(C)(CN)Nc1nc(-c2ccncc2)nc2cnccc12` [Example 110, N-(1-amino-2-methylpropan-2-yl)-2-(pyridin-4-yl)pyrido[3,4-d]pyrimidin-4-amine]?
A: IC50 (LATS1): 2 nM; IC50 [2]: 2970 nM; EC50 [3]: 15300 nM; IC50 [4]: 1500 nM

Q: For `Cc1cnccc1-c1nc(NC(C)(C)C(F)(F)F)c2ccncc2n1` [Example 157, 2-(3-methylpyridin-4-yl)-N-(1,1,1-trifluoro-2-methylpropan-2-yl)pyrido[3,4-d]pyrimidin-4-amine], which IC50 (LATS1) is on record?
A: 6 nM

Q: What about the IC50 [2] of the same molecule?
A: 4050 nM

Q: And the EC50 [3]?
A: 3780 nM

Q: And the IC50 [4]?
A: 9200 nM
